The record followed here is US20170311607A1, “SYNERGISTIC BACILLUS THURINGIENSIS SUBSP. AIZAWAI, BACILLUS THURINGIENSIS SUBSP. KURSTAKI AND FLUBENDIAMIDE MIXTURES FOR DIAMONDBACK MOTH, SUGARCANE BORER, SOYBEAN LOOPER, AND CORN EARWORM” (Valent BioSciences LLC, priority 2016, published 2017).

SMILES strings stand for the structures.

One experiment concerns cabbage looper larvae. Kind of experiment: Leaf dip efficacy and synergy test, cabbage looper larvae. Particulars: Trichoplusia ni, foliar, Bta/Btk 0.8125 ppm, flubendiamide 0.49 ppm, alone or in mixture. The class given is in vivo. The source says:
(§1) The following examples were used to determine the synergy of Bacillus thuringiensis subsp. aizawai, Bacillus thuringiensis subsp. kurstaki and flubendiamide when controlling diamondback moth, beet armyworm, sugarcane borer, soybean looper, corn earworm, cabbage looper, and southwestern corn borer. Sympatico™ emulsifiable suspension (available from Valent BioSciences LLC) was used as the source of Bacillus thuringiensis subsp. aizawai and Bacillus thuringiensis kurstaki. Sympatico™ contains about a 1:0.67 ratio of Bacillus thuringiensis subsp. kurstaki fermentation solids, spores and toxins to Bacillus thuringiensis subsp. aizawai fermentation solids, spores and toxins. Belt® was used as the source of flubendiamide. The present invention is not limited to the commercial products used in the examples. In each example below, the studies were conducted as follows.
(§2) For these tests, standardized laboratory leaf dip methods were used to inoculate plant material with treatment(s). Dry, treated leaves were placed into Petri dishes (100×25 mm) containing filter paper wetted with 500 μl of distilled H2O (“dH2O”). Each dish was then infested with between 5 and 10 larvae, dependent on species. Efficacy ratings were taken at specified intervals. Synergy ratings were calculated for each test. […]

For the next experiment, the system named is soybean looper larvae. As to the kind of experiment: Leaf dip efficacy and synergy test, soybean looper larvae. The experiment is classed as in vivo, Chrysodeixis includens. The settings on record: foliar, Bta/Btk 0.26 ppm, flubendiamide 3.9 ppm, alone or in mixture.
Source text: as §1, §2

The subject of the next experiment is sugarcane borer larvae. As to the kind of experiment: Leaf dip efficacy and synergy test, sugarcane borer larvae. The class given is in vivo. Particulars: Diatraea saccharalis, foliar, Bta/Btk 0.8125 ppm, flubendiamide 2.15 ppm, alone or in mixture.
Source text: as §1, §2

Experiment [1] has as its system southwestern corn borer larvae. Kind of experiment: Leaf dip efficacy and synergy test, southwestern corn borer larvae. The experiment is classed as in vivo. Particulars: foliar, Bta/Btk 0.8125 ppm, flubendiamide 0.39 ppm, alone or in mixture.
Source text: as §1, §2

The test system of another experiment is beet armyworm larvae. Kind of experiment: Leaf dip efficacy and synergy test, beet armyworm larvae. The experiment is classed as in vivo. Particulars: Spodoptera exigua, foliar, Bta/Btk 0.8125 ppm, flubendiamide 0.49 ppm, alone or in mixture.
Source text: as §1, §2

In a further experiment the test system is corn earworm larvae. As to the kind of experiment: Leaf dip efficacy and synergy test, corn earworm larvae. The experiment is classed as in vivo. Particulars: Helicoverpa zea, foliar, Bta/Btk 2.6 ppm, flubendiamide 0.975 ppm, alone or in mixture.
Source text: as §1, §2

In a further experiment the test system is diamondback moth larvae. Kind of experiment: Leaf dip efficacy and synergy test, diamondback moth larvae. The experiment is classed as in vivo. The settings on record: Plutella xylostella, foliar, Bta/Btk 0.8125 ppm, flubendiamide 0.215 ppm, alone or in mixture.
Source text: as §1, with “In each example below, the studies were conducted as follows.” left out
For these tests, standardized laboratory leaf dip methods were used to inoculate plant material with treatment(s). […] Synergy ratings were calculated for each test. […]
In order to determine synergy, rates below normal field rate ranges must be used. If normal field rate ranges are used, all of the larvae would die (combining a lethal or near lethal dose of Bacillus thuringiensis subsp. aizawai and Bacillus thuringiensis subsp. kurstaki with a lethal dose of flubendiamide would most likely lead to larvae death) in every treatment and synergy would not be able to be determined. […]

Turning to `Cc1cc(C(F)(C(F)(F)F)C(F)(F)F)ccc1NC(=O)c1cccc(I)c1C(=O)NC(C)(C)CS(C)(=O)=O` [Flubendiamide, 3-iodo-N′-(2-mesyl-1,1-dimethylethyl)-N-{4-[1,2,2,2-tetrafluoro-1-(trifluoromethyl)ethyl]-o-tolyl}phthalamide], the Emax (in general, the size of the effect at its maximum, as opposed to the concentration needed) at 0.49 ppm in the experiment with cabbage looper larvae (24 h after treatment) was 9%; with cabbage looper larvae (48 h after treatment), 65%; in the experiment on beet armyworm larvae (24 h after treatment) it was 10%; in the experiment on beet armyworm larvae (48 h after treatment), 23%. Moreover, the Emax at 3.9 ppm turned out to be 13% in the experiment with soybean looper larvae (24 h after treatment) and 38% with soybean looper larvae (48 h after treatment). Besides, the figures for the maximal effect (Emax) at 2.15 ppm in the experiment with sugarcane borer larvae (24 h after treatment) and with sugarcane borer larvae (48 h after treatment) were 24% and 33%, respectively. The values for the Emax at 0.39 ppm in experiment [1] (24 h after treatment) and in experiment [1] (48 h after treatment) were 49% and 51%, respectively. The Emax at 0.975 ppm in the experiment with corn earworm larvae (24 h after treatment) and in the experiment with corn earworm larvae (48 h after treatment) was 33% each time. For the same compound, the Emax at 0.215 ppm was 4% in the experiment with diamondback moth larvae (24 h after treatment) and 42% with diamondback moth larvae (48 h after treatment).
